Source: patent publication US20240270821A1, “GIP/GLP1/GCG TRI-RECEPTOR AGONISTS AND USES THEREOF” (priority 2023, published 2024)
Like-named read-outs stand apart in the source and are kept apart here. Starred links: 1 amine or outer side, 2 acyl side, 3 side chain; linkers in the order of their positions; H or OH if unused. Non-standard residues stand in square brackets, D forms with d. Groups on a side chain read outwards from the residue. No end group written: not given here. *: point of attachment. C20 diacid = O=C(O)CCCCCCCCCCCCCCCCCCC(=O)*; C18 diacid = O=C(O)CCCCCCCCCCCCCCCCC(=O)*; Phe(4-CN) = N#Cc1ccc(C[C@H](N)C(=O)O)cc1; αMePhe(2-F) = C[C@](N)(Cc1ccccc1F)C(=O)O; γGlu = O=C(O)[C@H](CCC(=O)[*:2])N[*:1]; αMe4Pal = C[C@](N)(Cc1ccncc1)C(=O)O; αMeY = C[C@](N)(Cc1ccc(O)cc1)C(=O)O; 4Pal = N[C@@H](Cc1ccncc1)C(=O)O; Aad = N[C@@H](CCCC(=O)O)C(=O)O; αMeL = CC(C)C[C@](C)(N)C(=O)O; αMeS = C[C@](N)(CO)C(=O)O; Orn = NCCC[C@H](N)C(=O)O; AEEA = NCCOCCOCC(=O)O; Aib = CC(C)(N)C(=O)O

Key:
Assay type in all cases: cell-based
hGLP-1R [1] = target: T1, hGLP-1R (Homo sapiens, UniProt P43220); assay: Functional cAMP activation in the presence of 0.1% casein (no HSA); settings: read-out: Relative cAMP EC50, hGLP-1R;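 also: intracellular cAMP rise after 30 min at 37 °C read by HTRF, normalized between buffer only (0%) and maximal control ligand (100%), four-parameter variable-slope fit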
T1 sequence (P43220 24-463): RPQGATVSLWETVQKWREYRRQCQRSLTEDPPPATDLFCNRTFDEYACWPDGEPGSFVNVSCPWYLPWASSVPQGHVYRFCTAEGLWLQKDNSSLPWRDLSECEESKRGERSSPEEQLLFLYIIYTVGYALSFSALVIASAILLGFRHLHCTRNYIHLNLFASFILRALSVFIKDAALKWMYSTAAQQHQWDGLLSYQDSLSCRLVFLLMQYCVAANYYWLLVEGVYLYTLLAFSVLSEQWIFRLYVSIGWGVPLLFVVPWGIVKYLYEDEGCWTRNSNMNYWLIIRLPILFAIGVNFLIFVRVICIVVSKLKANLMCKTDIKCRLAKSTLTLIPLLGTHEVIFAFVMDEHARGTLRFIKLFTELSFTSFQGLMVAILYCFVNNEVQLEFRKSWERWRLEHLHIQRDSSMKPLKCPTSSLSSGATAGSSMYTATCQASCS

human GcgR = human GcgR (Homo sapiens, UniProt P47871); assay: Functional cAMP activity in the presence of 1% HSA; settings: read-out: cAMP Rel EC50, hGcgR
human GcgR, sequence (P47871 26-477): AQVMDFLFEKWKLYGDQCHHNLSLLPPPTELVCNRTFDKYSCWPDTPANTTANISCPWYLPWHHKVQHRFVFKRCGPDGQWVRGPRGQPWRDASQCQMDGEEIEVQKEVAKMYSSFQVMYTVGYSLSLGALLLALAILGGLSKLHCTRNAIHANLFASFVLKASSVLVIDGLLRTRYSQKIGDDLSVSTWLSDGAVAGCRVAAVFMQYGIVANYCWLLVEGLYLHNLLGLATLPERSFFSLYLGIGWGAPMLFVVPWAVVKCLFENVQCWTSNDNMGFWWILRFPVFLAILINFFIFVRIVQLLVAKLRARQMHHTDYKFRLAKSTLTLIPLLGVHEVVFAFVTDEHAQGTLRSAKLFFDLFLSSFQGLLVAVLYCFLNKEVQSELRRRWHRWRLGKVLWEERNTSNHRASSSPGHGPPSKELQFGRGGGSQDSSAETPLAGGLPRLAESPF

hGcgR = hGcgR (Homo sapiens, UniProt P47871); assay: Functional cAMP activation in the presence of 0.1% casein (no HSA); settings: read-out: Relative cAMP EC50, hGcgR;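 also: intracellular cAMP rise after 30 min at 37 °C, read by HTRF against a cAMP standard curve, scaled from buffer only (0%) to maximal control ligand response (100%)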
hGcgR, sequence (P47871 26-477): as above

hGLP-1R [2] = target: T1, hGLP-1R; assay: Functional cAMP activity in the presence of 1% HSA; settings: read-out: cAMP Rel EC50, hGLP-1R
hGIPR [3] = target: T2, hGIPR (Homo sapiens, UniProt P48546); assay: Functional cAMP activity in the presence of 1% HSA; settings: read-out: cAMP Rel EC50, hGIPR
T2 sequence (P48546 22-466): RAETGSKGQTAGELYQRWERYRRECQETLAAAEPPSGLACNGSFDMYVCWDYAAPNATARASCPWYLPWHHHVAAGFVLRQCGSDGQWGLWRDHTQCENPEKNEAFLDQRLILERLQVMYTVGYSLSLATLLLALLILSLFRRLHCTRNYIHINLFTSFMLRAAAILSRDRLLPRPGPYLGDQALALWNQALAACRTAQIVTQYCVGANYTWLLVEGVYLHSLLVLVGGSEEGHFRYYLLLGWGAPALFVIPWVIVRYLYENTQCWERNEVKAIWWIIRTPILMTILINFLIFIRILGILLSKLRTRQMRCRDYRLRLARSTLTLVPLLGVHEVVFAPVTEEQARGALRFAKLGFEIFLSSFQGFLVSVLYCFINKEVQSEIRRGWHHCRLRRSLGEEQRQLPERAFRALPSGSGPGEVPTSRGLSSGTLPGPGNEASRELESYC

hGIPR [4] = target: T2, hGIPR; assay: Functional cAMP activation in the presence of 0.1% casein (no HSA); settings: read-out: Relative cAMP EC50, hGIPR;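 also: intracellular cAMP rise after 30 min at 37 °C read by HTRF against a standard curve, scaled between buffer alone (0%) and top control ligand concentration (100%), four-parameter fit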
[5] = in the presence of 0.1% casein (no HSA), geometric mean
[6] = in the presence of 0.1% casein (no HSA), geometric mean of relative EC50
[7] = HEK-293 clonal cell line, 1% HSA, geometric mean of relative EC50

Molecule	EC50 (hGLP-1R [1]) [nM]	EC50 (human GcgR) [nM]	EC50 (hGcgR) [nM]	EC50 (hGLP-1R [2]) [nM]	EC50 (hGIPR [3]) [nM]	EC50 (hGIPR [4]) [nM]	EC50 (hGLP-1R [1]; [5]) [nM]	EC50 (hGcgR; [5]) [nM]	EC50 (hGIPR [4]; [5]) [nM]	EC50 (hGLP-1R [1]; [6]) [nM]	EC50 (human GcgR; [7]) [nM]	EC50 (hGcgR; [6]) [nM]	EC50 (hGLP-1R [2]; [7]) [nM]	EC50 (hGIPR [3]; [7]) [nM]	EC50 (hGIPR [4]; [6]) [nM]
H-Y[Aib]QGT[αMePhe(2-F)]TSD[4Pal]SILLDKK([γGlu-γGlu-C18 diacid])AQ[Aib]AFIEYLEEGGPSSGAPPPSGTE-NH2 [Example 509]	0.65	617	4.66	69.2	5.01	0.0557									
H-Y[Aib]QGT[αMePhe(2-F)]TSDYSKLLDKIAQK([AEEA-γGlu-C20 diacid])AFIEYLIEGGPSSGAPPPEGE-NH2 [Example 357]		1810		248	42.9		0.625	6.21	0.077						
H-Y[Aib]QGT[αMePhe(2-F)]TSD[4Pal][αMeS]I[αMeL]LD[Orn]K([γGlu-γGlu-C18 diacid])AQ[αMe4Pal]EFI[dE][αMeY]LVEGGPSSGAPPPSGE-NH2 [Example 1160]		183		31.2	0.598		0.365	2.41	0.00773						
CC[C@H](C)[C@H](NC(=O)[C@H](CC(C)C)NC(=O)[C@H](Cc1ccc(O)cc1)NC(=O)[C@H](CCC(=O)O)NC(=O)[C@@H](NC(=O)[C@H](Cc1ccccc1)NC(=O)[C@H](C)NC(=O)[C@](C)(Cc1ccncc1)NC(=O)[C@H](CCC(N)=O)NC(=O)[C@H](C)NC(=O)[C@H](CCCCNC(=O)COCCOCCNC(=O)CC[C@H](NC(=O)CCCCCCCCCCCCCCCCC(=O)O)C(=O)O)NC(=O)[C@H](CCCCN)NC(=O)[C@H](CC(=O)O)NC(=O)[C@H](CC(C)C)NC(=O)[C@](C)(CC(C)C)NC(=O)[C@H](CCC(N)=O)NC(=O)[C@H](CO)NC(=O)[C@H](Cc1ccncc1)NC(=O)[C@H](CC(=O)O)NC(=O)[C@H](CO)NC(=O)[C@@H](NC(=O)[C@H](Cc1ccccc1)NC(=O)[C@@H](NC(=O)CNC(=O)[C@H](CCC(N)=O)NC(=O)C(C)(C)NC(=O)[C@@H](N)Cc1ccc(O)cc1)[C@@H](C)O)[C@@H](C)O)[C@@H](C)CC)C(=O)N[C@@H](C)C(=O)NCC(=O)NCC(=O)N1CCC[C@H]1C(=O)N[C@@H](CO)C(=O)N[C@@H](CO)C(=O)NCC(=O)N[C@@H](C)C(=O)N1CCC[C@H]1C(=O)N1CCC[C@H]1C(=O)N1CCC[C@H]1C(=O)N[C@@H](CO)C(=O)NCC(=O)N[C@@H](CO)C(N)=O [Example 827]		424		53.8	19.5		0.593	4.23	0.12						
H-Y[Aib]QGTFTSD[4Pal]SQ[αMeL]LD[Orn]K([AEEA-γGlu-C18 diacid])AQ[αMe4Pal]AFIE[αMeY]LIA[Aib]GPSSGEPPPSGSEE-NH2 [Example 1099]		472		75.8	8.64		0.73	3.47	0.076						
Y[Aib]QGTFTSD[4Pal]SQ[αMeL]LDKK([Glu-Glu-γGlu-C18 diacid])AQ[αMe4Pal]AFIEYLIE[Aib]GPSSGAPPPSGS-NH2 [Example 895]		1250		599	34		3.72	4.68	0.111						
H-Y[Aib]QGT[αMePhe(2-F)]TSD[4Pal]SILLD[Orn]K([γGlu-γGlu-C18 diacid])AQ[Aib]AFIEYLEEGGPSSGAPPPSGTE-NH2 [Example 513]	0.634	1440	9.58	78.2	10.3	0.0956									
H-Y[Aib]QGT[αMePhe(2-F)]TSD[4Pal]SILLDKK([AEEA-γGlu-C18 diacid])AQ[Aib]AFIEYL[Aad]EGGPSSGAPPPSGTGE-NH2 [Example 663]	1.29	226	1.95	79	10.2	0.0893									
Y[Aib]QGT[αMePhe(2-F)]TSD[4Pal][αMeS]I[αMeL]LD[Orn]K([γGlu-γGlu-C18 diacid])AQ[Aib][Orn]FI[dE][αMeY]LTEGGPSSGEPPPEGTEE-NH2 [Example 597]	0.6	329	5.2	36.4	2.38	0.0643									
H-Y[Aib]QGT[αMePhe(2-F)]TSD[Phe(4-CN)]SILLDKQAQK([AEEA-AEEA-γGlu-C20 diacid])AFIEYLLEGGPSSGEPPPSAG-NH2 [Example 350]		3760		360	33.6		0.776	10.4	0.106						
H-Y[Aib]QGT[αMePhe(2-F)]TSD[4Pal]SI[αMeL]LDKK([γGlu-γGlu-C18 diacid])AQ[Aib][Orn]FIEYLSEGGPSSGEPPPSGSEE-NH2 [Example 637]										1.08	968	11.7	76.2	7.23	0.108
CC[C@H](C)[C@H](NC(=O)[C@H](CC(C)C)NC(=O)[C@](C)(Cc1ccc(O)cc1)NC(=O)[C@@H](CCC(=O)O)NC(=O)[C@@H](NC(=O)[C@H](Cc1ccccc1)NC(=O)[C@H](CCC(=O)O)NC(=O)C(C)(C)NC(=O)[C@H](C)NC(=O)[C@H](C)NC(=O)[C@H](CCCCNC(=O)COCCOCCNC(=O)CC[C@H](NC(=O)CCCCCCCCCCCCCCCCC(=O)O)C(=O)O)NC(=O)[C@H](CCCN)NC(=O)[C@H](CC(=O)O)NC(=O)[C@H](CC(C)C)NC(=O)[C@](C)(CC(C)C)NC(=O)[C@@H](NC(=O)[C@](C)(CO)NC(=O)[C@H](Cc1ccncc1)NC(=O)[C@H](CC(=O)O)NC(=O)[C@H](CO)NC(=O)[C@@H](NC(=O)[C@](C)(Cc1ccccc1F)NC(=O)[C@@H](NC(=O)CNC(=O)[C@H](CCC(N)=O)NC(=O)C(C)(C)NC(=O)[C@@H](N)Cc1ccc(O)cc1)[C@@H](C)O)[C@@H](C)O)[C@@H](C)CC)[C@@H](C)CC)C(=O)N[C@@H](CCC(=O)O)C(=O)NCC(=O)NCC(=O)N1CCC[C@H]1C(=O)N[C@@H](CO)C(=O)N[C@@H](CO)C(=O)NCC(=O)N[C@@H](CCC(=O)O)C(=O)N1CCC[C@H]1C(=O)N1CCC[C@H]1C(=O)N1CCC[C@H]1C(=O)N[C@@H](CO)C(=O)NCC(=O)N[C@@H](CO)C(N)=O [Example 707]	0.248	199	1.06	30.6	1.05	0.0107									
Y[Aib]QGT[αMePhe(2-F)]TSD[4Pal][αMeS]I[αMeL]LD[Orn]K([γGlu-γGlu-C18 diacid])AQ[Aib][Orn]FI[dE][αMeY]LQEGGPSSGEPPPEGGEE-NH2 [Example 586]	0.593	302	4.58	29.1	2.46	0.0461									
H-Y[Aib]QGTFTSD[4Pal]SQ[αMeL]LD[Orn]K([AEEA-γGlu-C18 diacid])AQ[αMe4Pal]QFIE[αMeY]LIEGGPSSGAPPPSGSEE-NH2 [Example 1045]		1540		276	107		1.51	7.35	0.781						
H-Y[Aib]QGTFTSD[4Pal]SQ[αMeL]LDKK([γGlu-γGlu-C18 diacid])AQ[αMe4Pal]AFIEYLIE[Aib]GPSSGAPPPEGE-NH2 [Example 884]		613		298	23.5		4.17	3.82	0.155						
